Experiment [1] has as its target T1, Alpha-2A adrenergic receptor (Homo sapiens, UniProt P08913).
T1 sequence (P08913 whole entry): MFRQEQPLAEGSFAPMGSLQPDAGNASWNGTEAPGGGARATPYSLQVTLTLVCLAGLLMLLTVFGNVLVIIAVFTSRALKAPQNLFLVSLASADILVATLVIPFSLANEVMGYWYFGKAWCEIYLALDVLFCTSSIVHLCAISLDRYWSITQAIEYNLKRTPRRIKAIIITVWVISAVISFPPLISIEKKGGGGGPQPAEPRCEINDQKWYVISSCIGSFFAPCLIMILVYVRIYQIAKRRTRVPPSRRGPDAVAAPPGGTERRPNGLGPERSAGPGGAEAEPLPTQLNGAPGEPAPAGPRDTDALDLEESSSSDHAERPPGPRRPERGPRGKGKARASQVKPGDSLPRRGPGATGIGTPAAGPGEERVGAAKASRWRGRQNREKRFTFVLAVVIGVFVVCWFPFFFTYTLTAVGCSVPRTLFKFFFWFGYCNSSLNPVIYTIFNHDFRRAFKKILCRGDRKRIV
In words: Activity of compound against Alpha-2A (ADRA2A) adrenergic receptor by displacement of [3H]-rauwolscine.

For experiment [2], the target named is T2, Muscarinic acetylcholine receptor M4 (Homo sapiens, UniProt P08173).
T2 sequence (P08173 whole entry): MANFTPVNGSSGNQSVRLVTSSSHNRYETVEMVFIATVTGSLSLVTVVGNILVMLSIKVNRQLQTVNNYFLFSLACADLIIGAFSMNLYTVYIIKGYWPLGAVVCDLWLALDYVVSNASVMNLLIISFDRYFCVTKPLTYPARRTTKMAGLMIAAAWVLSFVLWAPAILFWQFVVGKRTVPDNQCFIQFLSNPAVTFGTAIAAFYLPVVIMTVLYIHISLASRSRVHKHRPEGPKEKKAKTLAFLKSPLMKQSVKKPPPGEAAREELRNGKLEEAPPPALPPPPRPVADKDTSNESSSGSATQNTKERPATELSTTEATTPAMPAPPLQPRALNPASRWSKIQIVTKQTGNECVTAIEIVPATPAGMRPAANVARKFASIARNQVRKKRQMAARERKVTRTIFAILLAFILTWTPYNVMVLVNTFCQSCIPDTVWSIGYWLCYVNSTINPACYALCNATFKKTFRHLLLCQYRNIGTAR
In words: Activity of compound against Muscarinic acetylcholine receptor M4 (CHRM4) by displacement of 3H-QNB.

pKi: −log10 of the molar value.

Data on 1 compound can be found in ChEMBL document CHEMBL4303773 (Nature, 2020).

In the case of `CCCN1CCC=C(c2cc(-c3ccc(C)cc3)no2)C1`, the figures for the pKi in experiment [1] and in experiment [2] were 5.08 and 4.61, respectively.
